Data as given in ChEMBL document CHEMBL4419178, “Yap1 inhibitors that target the interaction of yap1 with oct4” (2018).
Calls of active or inactive are those of the source. The calls are words filed in the database; no cut-off is given here.

Tests used:
NCI-H1650 [1] = experiment: Inhibition of YAP1 in human NCI-H1650 cells assessed as disruption in YAP1/TEAD2 interaction at 20 to 50 uM incubated for 48 hrs by proximity ligation assay; assay type: cell-based
NCI-H1650 [2] = experiment: Inhibition of self-renewal capacity in stem-like side-population cells of human NCI-H1650 cells assessed as reduction in number of spheres at 5 to 50 uM incubated for 10 days by sphere formation assay; assay type: functional, cell-based
NCI-H1650 [3] = experiment: Cytotoxicity in human NCI-H1650 cells assessed as induction of cell killing in presence of cancer associated fibroblasts at 20 to 50 uM incubated for 24 to 48 hrs by cytotracker-red/green dye staining based immunofluorescence microscopy; assay type: functional
[4] = target: Transcriptional coactivator YAP1 (Homo sapiens) (UniProt P46937); experiment: Inhibition of YAP1 in human A549 cells assessed as disruption in YAP1/OCT4 co-localization at 25 uM incubated for 48 hrs by double immunofluorescence based assay; assay type: cell-based
Chain of Transcriptional coactivator YAP1 (Homo sapiens) (P46937 whole entry): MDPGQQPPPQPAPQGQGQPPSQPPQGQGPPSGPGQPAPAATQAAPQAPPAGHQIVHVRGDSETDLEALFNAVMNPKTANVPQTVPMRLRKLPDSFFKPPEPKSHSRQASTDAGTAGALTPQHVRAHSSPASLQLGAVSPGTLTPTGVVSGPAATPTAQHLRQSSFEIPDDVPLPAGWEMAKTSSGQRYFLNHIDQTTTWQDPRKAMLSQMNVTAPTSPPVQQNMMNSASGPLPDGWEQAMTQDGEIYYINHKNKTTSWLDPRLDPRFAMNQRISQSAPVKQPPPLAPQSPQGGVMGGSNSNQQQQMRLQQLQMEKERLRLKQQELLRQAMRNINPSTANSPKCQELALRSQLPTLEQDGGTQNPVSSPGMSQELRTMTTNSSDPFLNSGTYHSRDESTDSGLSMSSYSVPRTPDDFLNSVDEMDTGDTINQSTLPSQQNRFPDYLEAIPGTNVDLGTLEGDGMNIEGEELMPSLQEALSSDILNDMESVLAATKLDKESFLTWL

[5] = target: Transcriptional coactivator YAP1 (Homo sapiens) (UniProt P46937); experiment: Inhibition of YAP1 in human NCI-H1650 cells assessed as disruption in YAP1/OCT4 interaction at 20 to 50 uM incubated for 48 hrs by proximity ligation assay; assay type: cell-based
[6] = Cytotoxicity in human cancer associated fibroblasts at 20 to 50 uM incubated for 24 to 48 hrs by cytotracker-red/green dye staining based immunofluorescence microscopy
NCI-H1650 [7] = experiment: Inhibition of self-renewal capacity in stem-like side-population cells of human NCI-H1650 cells assessed as reduction in number of spheres at 50 uM incubated for 10 days by sphere formation assay; assay type: functional, cell-based
[8] = target: Transcriptional coactivator YAP1 (Homo sapiens) (UniProt P46937); experiment: Inhibition of YAP1 (unknown origin) assessed as disruption in YAP1/OCT4 interaction at 5 uM by ELISA relative to control
[9] = target: Transcriptional coactivator YAP1 (Homo sapiens) (UniProt P46937); experiment: Inhibition of YAP1 (unknown origin) assessed as disruption in YAP1/OCT4 interaction at 50 uM by cell based assay
[10] = target: Transcriptional coactivator YAP1 (Homo sapiens) (UniProt P46937); experiment: Inhibition of YAP1 (unknown origin) assessed as disruption in YAP1/OCT4 interaction at 10 uM by ELISA relative to control
NCI-H1650 [11] = experiment: Inhibition of self-renewal capacity in stem-like side-population cells of human NCI-H1650 cells assessed as reduction in number of spheres at 1 to 20 uM incubated for 10 days by sphere formation assay; assay type: functional, cell-based

Oc1ccccc1/N=C/c1c(O)ccc2ccccc12
inhibition (NCI-H1650 [1]): Active | inhibition (NCI-H1650 [2]): Active | Activity (NCI-H1650 [3]): Active | inhibition [4]: Active | inhibition [5]: Active | Activity [6]: Non-Toxic | inhibition (NCI-H1650 [7]): Active

O=C(CC1CCN(C(=O)CCc2ccccc2)CC1)N[C@@H](Cc1ccc(OCc2ccccc2)cc1)C(=O)NC1CCCCC1
inhibition [8]: 90% | inhibition [9]: 70%

O=[N+]([O-])c1[nH]cnc1/C=C/c1ccccc1
inhibition (NCI-H1650 [2]): Active | Activity (NCI-H1650 [3]): Active | inhibition [4]: Active | Activity [6]: Non-Toxic | inhibition (NCI-H1650 [7]): Active

COC(=O)[C@H](Cc1ccc(OCc2ccccc2)cc1)NC(=O)CC1CCN(Cc2ccccc2)CC1
inhibition [9]: 70% | inhibition [10]: 57%

COc1cc2c(cc1OC)[N+]([O-])=C(c1ccccc1)C2=O
Activity (NCI-H1650 [3]): Active | inhibition [4]: Active | Activity [6]: Non-Toxic

CCOc1ccc(CCC(=O)N2CCC(CC(=O)N[C@@H](Cc3ccc(OCc4ccccc4)cc3)C(=O)O)CC2)cc1
inhibition (NCI-H1650 [1]): Active | inhibition [5]: Active

COC(=O)[C@H](Cc1ccc(OCc2ccccc2)cc1)NC(=O)CC1CCN(C(=O)c2ccccc2)CC1
inhibition (NCI-H1650 [2]): Active | inhibition [9]: 84% | inhibition [10]: 75%

CCOc1ccc(CCC(=O)N2CCC(CC(=O)N[C@@H](Cc3ccc(OCc4ccccc4)cc3)C(=O)OC)CC2)cc1
inhibition (NCI-H1650 [11]): Active

COC(=O)[C@H](Cc1ccc(OCc2ccccc2)cc1)NC(=O)CC1CCN(C(=O)CCc2cccc(C)c2)CC1
inhibition (NCI-H1650 [11]): Active

CCOC(=O)/C(C#N)=C/c1c[nH]c2ccccc12
inhibition (NCI-H1650 [7]): Active

O=C(CC1CCN(C(=O)CCc2ccccc2)CC1)N[C@@H](Cc1ccc(OCc2ccccc2)cc1)C(=O)NC1CCC1
inhibition [9]: 65% | inhibition [10]: 80%

O=C(CC1CCN(C(=O)CCc2ccccc2)CC1)N[C@@H](Cc1ccc(OCc2ccccc2)cc1)C(=O)NC1CCCC1
inhibition [8]: 90% | inhibition [9]: > 70%

COC(=O)[C@H](Cc1ccc(O)cc1)NC(=O)CC1CCN(C(=O)OC(C)(C)C)CC1
inhibition [8]: 78% | inhibition [9]: 70%

COC(=O)[C@H](Cc1ccc(O)cc1)NC(=O)CC1CCN(C(=O)CCc2ccccc2)CC1
inhibition [8]: 97% | inhibition [9]: > 77%
